# Assay results from patent US7786257B2, “Signal-1/signal-2 bifunctional peptide inhibitors” (priority 2000, dated 2010).
# Entries after “also recorded” stand apart in the source; their conditions may differ. Where no end group is shown, it is not given here. [ ]: non-standard residue; d: D form. Ahx = NCCCCCC(=O)O
# Legend:
# [1] = system: live APC (spleenocytes) from NOD (I-A^g7), BALB/c, A.SW, A.BY mice; assay: Flow cytometry of biotinylated peptide binding to live APC (spleenocytes) of inbred mouse strains; conditions: for percentage of high-density binding cells: biotinylated peptide 50 μM, overnight; for preferential binding to NOD APC compared with other strains (BALB/c, A.SW, A.BY): biotinylated peptide, live spleenocytes, flow cytometry
# Procedure: Specifically, it was verified that the peptide binds to MHC molecules on live APC. Briefly, spleen cell density-gradient fractions (from mice), or PBL, or APC lines (from humans) were incubated in round bottom 96-well plates with increasing concentrations of individual biotinylated peptides at 37° C., 5% CO2 for 16 hours. Following binding of the BPI to the APC, Avidin-FITC was incubated with the cells on ice for 30 minutes, followed by biotinylated anti-Avidin for 1 hour, then again with Avidin-FITC. For BPI titrations, increasing concentrations (0.1-100 μM) of the biotinylated derivatives in sterile 0.5% BSA-PBS were incubated with the APC for 16 hours as above. […] Three-color analyses used Cy-Chrome or PE-conjugated antibodies to known surface markers of APC that were commercially available. Avidin-FITC and biotinylated anti-Avidin detection of the bound peptide was as previously described in Murray et al., 24 Eur. J. Immunol. 2337-2344 (1994); Murray; 19 Immunology Today 157-163; and Schountz et al., 157 The Journal of Immunology 3893-3901 (1996). Slight modifications of this method were used to test peptide inhibition (i.e., peptide affinity) and co-capping to the MHC and ICAM molecules directly on the live APC surface. […] Unlabeled peptide was used in a competition assay to derive the relative affinity of the BPI for the APC and the ability of the BPI to crosslink the MHC and ICAM molecules on the APC was examined by cocapping ICAM with an anti-MHC mAb. Here, cells were incubated with the BPI. Next, an anti-MHC mAb was added. After 30 minutes at 37° C., the cells were transferred to ice and stained with PE-labeled anti-ICAM (FIG. 7).
# To obtain biotinylated BPI, the synthesized EGAD BPI was biotinylated with NHS-Biotin as described in Murray et al., 24 Eur. J. Immunol. 2337-2344 (1994). Spleen cell density-gradient fractions from normal (unimmunized) NOD, BALB/c and other MHC congenic strains were incubated in round bottom 96-well plates with increasing concentrations of individual biotinylated peptides at 37° C., 5% CO2 for 16 hours. Following binding of the BPI to the APC, Avidin-FITC was incubated with the cells on ice for 30 minutes, followed bybiotinylated anti-Avidin for 1 hour, then again with Avidin-FITC. For BPI titrations, increasing concentrations (0.1-100 μM) of the biotinylated derivatives in sterile 0.5% BSA-PBS were incubated with the APC for 16 hours as above. Three-color analyses used Cy-Chrome or PE-conjugated anti-B220 (mAb RA3-6B2 (CD45R B-cell marker), anti-MHC class II (KH74 or 10-3.62 mAb), or anti-ICAM-1 (3E2 mAb); (all purchased from PharMingen, San Diego, Calif.). Bound peptide was detected with avidin-FITC/biotinylated anti-avidin/avidin-FITC on live cells gated by forward/side scatter analysis. Controls contained all detecting reagents in absence of the biotinylated peptide; 20,000 events were analyzed for each histogram with a FACScan (Becton-Dickinson) flow cytometer.
# To verify antigenic peptide binding to live APC, initial EGAD-BPI were screened for selective binding to NOD (I-A^g7) APC and assayed for simultaneous binding using monoclonal antibodies against either MHC-II or ICAM-1 by flow cytometry methods using live APC (Murray et al., 24 Eur. J. Immunol. 2337-2344 (1994); Murray; 19 Immunology Today 157-163; and Schountz et al., 157 The Journal of Immunology 3893-3901 (1996)). In this assay, increasing concentrations of the biotinylated-BPI, -CD11a(237-247) or -GAD65(208-217) peptide were incubated overnight with spleenocytes from each inbred strain. Bound peptide was detected with amplification of avidin-FITC fluorescence by the use of a biotinylated anti-avidin reagent, followed by a second round of avidin-FITC binding. Biotinylated peptide was incubated with 10^6 viable cells at a peptide concentrations of 50 μM. Bound peptide was detected with avidin-FITC/biotinylated anti-avidin-FITC. […]
# NOD mice = assay: Lymphocytic infiltration of pancreatic islets (insulitis) in NOD mice, histological scoring; assay type: in vivo, mouse
# Text: To evaluate the disease process by immunohistology (see, e.g., FIG. 12A-D), spleen, pancreas, or other target organs, e.g., the CNS for the MDP peptide BPI, or lung for the RSV peptide BPI, were removed from euthanized mice of each group and prepared for histology by fixing in neutral buffered formalin and embedding in paraffin, or snap frozen in O.C.T. medium. For scoring inflammation, minimums of five sections from each mouse were used to assess the blocking affect of a given BPI. For characterization of standard T-cell markers on cellular infiltrates, biotinylated mAb to various cell surface antigens will be incubated individually with the Cryostat sections (2 hours), followed by avidin-alkaline phosphatase (Vector laboratories). Alternatively, cell subsets will be phenotyped by standard flow cytometry methods as described in Murray et al., 24 Eur. J. Immunol. 2337-2344 (1994); Murray; 19 Immunology Today 157-163; and Schountz et al., 157 The Journal of Immunology 3893-3901 (1996). Finally, the students t-test or ANOVA will be used to estimate the statistical significance of differences observed between groups and individual mice.
# These studies sought to confirm that the BPI containing the immunodominant GAD65 TCR epitope (EGAD-BPI) was biologically active in vivo and inhibited the development of pancreatic inflammation. Groups of three normal glycemic NOD males (8 weeks old) were immunized with the GAD65 (208-217) peptide in CFA as described in Example 4. The control group received PBS, and separate experimental groups received either the EGAD-BPI, the GAD peptide alone (i.e., the T-cell receptor epitope), or the CD11a peptide alone(i.e., the second signal receptor moiety) by two intravenous injections as described in Example 4. On day 10, the pancreata were removed to 10% PBS-buffered formalin, embedded in paraffin, and five-micron serial sections were examined histologically for mononuclear cell infiltration as previously described by Yoon, et al., Control of Autoimmune Diabetes in NOD Mice by GAD Expression or Suppression in β Cells, 284 Science 1183-1187 (1999), the entirety of which is hereby incorporated by reference.
# NOD.Scid mice = assay: NOD.Scid adoptive transfer model of diabetes progression (blood glucose); assay type: in vivo, mouse; conditions: 7 weeks post adoptive transfer; CD4+ T-cells from treated mice co-transferred with CD25-depleted inducer cells
# Procedure: In another example which tested the diabetes BPI in vivo, 15 million disease-linked lymphocytes (i.e., patient T-cells, or T-cell populations linked to the disease process) were injected with or without T-cells that received the BPI compound (in vivo or in vitro) and were expanded for 24 hours in recombinant IL-2. […] For blocking spontaneous diabetes, five groups of ten female NOD mice (12 weeks of age) were used and monitored for nondiabetic blood glucose levels with a standard glucometer (AccuChek-complete, Roche Diagnostic). Each mouse was labeled and individually monitored for blood glucose levels weekly for the course of the experiment. The five groups received either (a) intravenous (i.v.) injection of the BPI (100 μg in 100 μl endotoxin-free saline/injection) at 8 weeks of age, (b) same dose GAD65 (208-217) epitope alone, (c) same dose CD11a (237-247) peptide alone, or (d) saline alone.
# NOD spleen cells from 8 week (non-diabetic) females were used to enrich a CD25-/CTLA4-depleted population by treatment with purified monoclonal antibody (mAb 7D4, PharMingen) followed by low-tox rabbit complement (Cedarlane) (80% depletion of CTLA4+ cells by flow analysis with PE-labeled UC10-4F10-11 mAb; not shown). […] In vitro clonal expansion was with either recombinant IL-2 (R&D systems), or ConA, as described for the ELISPOT experiments. […]
substance,measurement,setting,value
GAD65(208-217)-[Ac-G-Ac-G-Ac]-CD11a (237-247) (EIAPVFVLLE[Ahx]G[Ahx]G[Ahx]ITDGEATDSG) [EGAD-BPI],percentage of high-density binding cells,[1]; A.BY spleenocytes,6%
same,percentage of high-density binding cells,[1]; NOD spleenocytes,30%
same,"preferential binding to NOD APC compared with other strains (BALB/c, A.SW, A.BY)",[1],higher density
same,"preferential binding to NOD APC compared with other strains (BALB/c, A.SW, A.BY)",[1]; listed as GAD 65 BPI,binds preferentially to NOD APC
same,"intact / normal islets without infiltration (grade-0 islets), percentage of islets examined","NOD mice; NOD males, GAD65 peptide in CFA, two i.v. injections of 40 nanomoles, day 10",Over 95%
same,"mononuclear cell infiltration of islets (insulitis), in words","NOD mice; NOD males, day 10, histology",clear inhibitory effect; also recorded: predominately intact
same,inhibition of insulitis,"NOD mice; compared to the PBS control, calculated from % islets at grade 1-4",84%
same,mice showing hyperglycemia and progression to diabetes,NOD.Scid mice,40%
